Patent US8735410B2, “Quinazoline derivatives as tyrosine kinase inhibitors” (AstraZeneca AB, priority 2005, dated 2014)

Tested on: KB cells (human tumour cell line ATCC CCL-17)
Assay: EGFR driven KB cell proliferation assay (Test b)
Type: cell-based
Conditions: geometric mean of n tests, EGF driven proliferation of KB cells
Method: b) EGFR Driven KB Cell Proliferation Assay
This assay measures the ability of a test compound to inhibit the proliferation of KB cells (human tumour cell line ATCC CCL-17).
KB cells were cultured in Dulbecco's modified Eagle's medium (DMEM) containing 10% foetal calf serum, 2 mM glutamine and 1% non-essential amino acids at 37° C. in a 7.5% CO2 air incubator. Cells were harvested from the stock flasks using Trypsin/ethylaminediaminetetraacetic acid (EDTA). Cell density was measured using a haemocytometer and viability was calculated using trypan blue solution before being seeded at a density of 1.25×10^3 cells per well of a 96 well plate in DMEM containing 2.5% charcoal stripped serum, 1 mM glutamine and 1% non-essential amino acids at 37° C. in 7.5% CO2 and allowed to settle for 4 hours.
Following adhesion to the plate, the cells are treated with or without EGF (final concentration of 1 ng/ml) and with or without compound at a range of concentrations in dimethylsulfoxide (DMSO) (0.1% final) before incubation for 4 days. Following the incubation period, cell numbers were determined by addition of 50 μl of 3-(4,5-Dimethylthiazol-2-yl)-2,5-diphenyltetrazolium bromide (MTT) (stock 5 mg/ml) for 2 hours. MTT solution was then tipped off, the plate gently tapped dry and the cells dissolved upon the addition of 100 μl of DMSO.
Absorbance of the solubilised cells was read at 540 nm using a Molecular Devices ThermoMax microplate reader. Inhibition of proliferation was expressed as an IC50 value. This was determined by calculation of the concentration of compound that was required to give 50% inhibition of EGF driven proliferation. The range of proliferation was calculated from the positive (vehicle plus EGF) and negative (vehicle minus EGF) control values. The IC50 value obtained from basal cell growth gives a measure of selectivity.

SMILES | IC50 [nM]
COc1cc2ncnc(Nc3cccc(Cl)c3F)c2cc1O[C@H]1CCN(C)[C@H](C(N)=O)C1 [Example 1, (2S,4S)-4-({4-[(3-chloro-2-fluorophenyl)amino]-7-methoxyquinazolin-6-yl}oxy)-1-methylpiperidine-2-carboxamide] | 56
CNC(=O)[C@H]1C[C@H](Oc2cc3c(Nc4cccc(Cl)c4F)ncnc3cc2OC)CCN1C [Example 3, (2R,4R)-4-({4-[(3-chloro-2-fluorophenyl)amino]-7-methoxyquinazolin-6-yl}oxy)-N,1-dimethylpiperidine-2-carboxamide] | 23
CNC(=O)[C@@H]1C[C@@H](Oc2cc3c(Nc4cccc(Cl)c4F)ncnc3cc2OC)CCN1C [Example 2, (2S,4S)-4-({4-[(3-chloro-2-fluorophenyl)amino]-7-methoxyquinazolin-6-yl}oxy)-N,1-dimethylpiperidine-2-carboxamide] | 61
